From ChEMBL document CHEMBL2069279, “Target fishing and docking studies of the novel derivatives of aryl-aminopyridines with potential anticancer activity” (Bioorg Med Chem, 2012)

Key:
[1] = test system: K562; assay: Cytotoxicity against human K562 cells after 72 hrs by MTT assay; assay type: functional, cell-based; settings: K562, 72 h
[2] = test system: PBMC; assay: Cytotoxicity against human PBMC cells in presence of phytohemagglutinin after 72 hrs by MTT assay; assay type: cell-based
[3] = Cytotoxicity against human Fem-X cells after 72 hrs by MTT assay; assay type: functional, cell-based
[4] = test system: PBMC; assay: Cytotoxicity against human PBMC cells in absence of phytohemagglutinin after 72 hrs by MTT assay; assay type: cell-based
[5] = test system: HeLa; assay: Cytotoxicity against human HeLa cells after 72 hrs by MTT assay; assay type: functional, cell-based
[6] = Homo sapiens, HeLa, 72 h, read-out: IC50

| Compound | IC50 [1] [µM] | IC50 [2] [µM] | IC50 [3] [µM] | IC50 [4] [µM] | IC50 [5, 6] [µM] | IC50 ([5]; hela) |
| --- | --- | --- | --- | --- | --- | --- |
| COc1ccc(Nc2ccc3ccccc3n2)cc1 | 30 | 70 | 43 | 91 | 51 | – |
| COc1ccc(Nc2cc(-c3cccc(C(F)(F)F)c3)ccn2)cc1 | 78 | 105 | 68 | 132 | 140 | – |
| COc1ccc(Nc2cccnc2)cc1 | 68 | 183 | 118 | 96 | 145 | – |
| Fc1ccc(Nc2ccc3ccccc3n2)cc1 | 36 | 65 | 35 | 90 | 33 | – |
| Cc1ccc(-c2ccnc(Nc3ccc(F)cc3)c2)cc1 | 54 | 146 | 79 | 127 | 146 | – |
| COc1ccc(Nc2c(-c3ccccc3)cnc3ccccc23)cc1 | 25 | 62 | 35 | 72 | 64 | – |
| COc1ccc(Nc2cc(-c3ccc(C)cc3)ccn2)cc1 | 19 | 34 | 33 | 52 | 43 | – |
| CCc1ccc(Nc2cc(-c3cccc(C(F)(F)F)c3)ccn2)cc1 | – | – | > 200 | – | > 200 | – |
| COc1cccc(Nc2cc(-c3cccc(C(F)(F)F)c3)ccn2)c1 | – | – | > 200 | – | > 200 | – |
| COc1ccc(Nc2nc3ccccc3cc2-c2ccc(C)cc2)cc1 | 75 | 118 | 65 | 137 | 102 | – |
| COc1ccc(Nc2ccccn2)cc1 | 63 | 42 | 123 | 46 | 117 | – |
| CCc1ccc(Nc2nc3ccccc3cc2-c2ccccc2)cc1 | 99 | 66 | 92 | 73 | 140 | – |
| COc1ccc(Nc2c(-c3ccc(OC)cc3)cnc3ccccc23)cc1 | 25 | 105 | 56 | 122 | 104 | – |
| COc1cccc(Nc2nc3ccccc3cc2-c2ccccc2)c1 | 76 | 81 | 129 | 119 | – | ND(toxic) |
